Data: PMC5352051, “Identification of a novel Polo-like kinase 1 inhibitor that specifically blocks the functions of Polo-Box domain” (Oncotarget, 2016)

Assays:
HeLa cells = assay: Immunofluorescence assay, mitotic phase distribution; type: cell-based, human; conditions: 10 hrs; for percentage of prometaphase cells: synchronized HeLa, control 23.3%
Protocol: To determine mitotic phase distribution, about 50 mitotic cells were analyzed. Cells were classified according to the structure and alignment of the chromosomes as well as the number and location of the centrosomes. All experiments were performed in triplicate. For confocal microscopy, HeLa cells grown on coverslips were fixed and permeabilized in methanol for 15 min at −20°C and then incubated with blocking buffer (PBS with 0.1% Triton X-100 and 5% BSA) for 2 hrs at RT. And then the coverslips were followed by washing and incubation with primary antibodies and fluorophore-conjugated secondary antibodies for 1 hr at RT, respectively. All antibodies were diluted in blocking buffer and the coverslips were washed three times with PBST, and then all coverslips were treated with 4',6-diamidino-2-phenylindole (DAPI) (Sigma; 2 μg/mL) for 2 min at RT, washed again and mounted onto slides using ProLong Diamond Antifade Mountant (Cat# 36961; Molecular Probes). Immunofluorescence images were taken with Olympus FV1000 Confocal Laser Microscope (Olympus, Japan) at 600×magnification. All images were processed using FV10-ASW 3.0 Viewer Software System (Olympus, Japan). The following antibodies were used: anti-α-Tubulin mouse monoclonal antibody (Cat# T9026; Sigma; 1:800), anti-γ-Tubulin rabbit polyclonal antibody (Cat# T3559; Sigma; 1:1500), Alex Fluor 488-conjugated goat anti-mouse IgG (Cat# A-11011; Molecular Probes; 1:1000) and Alex Fluor 594-conjugated donkey anti-rabbit IgG (Cat# A-21207; Molecular Probes; 1:1000).

[1] = system: normal cell lines, MRC5, HEK-293 and L02 cells; assay: MTT assay, panel of normal cell lines; type: cell-based; conditions: Homo sapiens; three exponentially growing normal cell lines; read-out: IC50 proliferation, range over cell lines
Protocol: The MTT assay was performed as described. In brief, cells were seeded at 3000~5000 cells/well into 96-well plates (200 μL/well) and incubated overnight. We replaced the growth medium with fresh medium containing T521 at several concentrations (two-fold dilutions and the initial concentration is 50 μM, 10 reactions total). After further incubation for 48 hrs in the presence of T521, the medium was removed from all wells and the cells were incubated with 200 μL of fresh medium for additional 24 hrs. We then added 22 μL of MTT solution (Amresco; 5 mg/mL in PBS) to each well and incubated the plate for 4 hrs at 37°C. After removing the medium, we dissolved the purple MTT-formazan crystals by adding 150 μL of DMSO to each well and recorded absorbance at 560 nm by Envision Multilabel Reader (PerkinElmer). The inhibition curve was plotted to determine the IC50 of various cell lines using GraphPad Prism5.0.

Plk2 = target: T1, Plk2 (Homo sapiens, UniProt Q9NYY3); assay: HPLC-Q-TOF mass spectrometry of intact protein after incubation; type: binding; conditions: Plk2 10 μM, T521 500 μM, RT, 30 min
T1 construct: purchased Sino Biological Inc
Protocol: (§1) The covalent binding mode was speculated from the interactions between Poloxin, TQ and Plk1 PBD [23]. […] To test this possibility, we incubated purified Plk1 (10 μM) with T521 (500 μM) in 50 mM Tris-HCl (pH8.0) at room temperature for 30 min. […] In contrast, no addition of T521 to Plk2 or Plk3 was detected after their incubation with T521 (Supplementary Figure S1C, S1D, S1E and S1F).
(§2) Supplementary Figure S1: Analysis of binding mode between T521 and Plk1-3 using HPLC-Q-TOF MS. Plk1-3 (10 μM) proteins were incubated with or without T521 (500 μM) in 50 mM Tris-HCl (pH8.0) at RT for 30 min. The desalted samples (5 μg) were eluted with an HPLC gradient program into a Q-TOF mass spectrometer (Agilent, USA). Mass spectra were obtained after deconvolution.
(§3) A, C, E. The analysis of Plk1-3 proteins after incubation in the absence of T521. B, D, F. The analysis of Plk1-3 proteins after incubation […]
(§4) (also on this page, place not known: www.impactjournals.com/oncotarget/ Oncotarget, Materials 2016 Supplementary) […]

Plk1 = target: T2, Plk1 (Homo sapiens, UniProt P53350); assay: as above; type: binding; conditions: Plk1 10 μM, T521 500 μM, 50 mM Tris-HCl pH8.0, RT, 30 min
T2 construct: purchased Sino Biological Inc
Protocol: as §1, §2, §3, §4

Plk3 = target: T3, Plk3 (Homo sapiens, UniProt Q9H4B4); assay: as above; type: binding; conditions: Plk3 10 μM, T521 500 μM, RT, 30 min
T3 construct: purchased Sino Biological Inc
Protocol: as §1, §2, §3, §4

T2 sequence (P53350 whole entry): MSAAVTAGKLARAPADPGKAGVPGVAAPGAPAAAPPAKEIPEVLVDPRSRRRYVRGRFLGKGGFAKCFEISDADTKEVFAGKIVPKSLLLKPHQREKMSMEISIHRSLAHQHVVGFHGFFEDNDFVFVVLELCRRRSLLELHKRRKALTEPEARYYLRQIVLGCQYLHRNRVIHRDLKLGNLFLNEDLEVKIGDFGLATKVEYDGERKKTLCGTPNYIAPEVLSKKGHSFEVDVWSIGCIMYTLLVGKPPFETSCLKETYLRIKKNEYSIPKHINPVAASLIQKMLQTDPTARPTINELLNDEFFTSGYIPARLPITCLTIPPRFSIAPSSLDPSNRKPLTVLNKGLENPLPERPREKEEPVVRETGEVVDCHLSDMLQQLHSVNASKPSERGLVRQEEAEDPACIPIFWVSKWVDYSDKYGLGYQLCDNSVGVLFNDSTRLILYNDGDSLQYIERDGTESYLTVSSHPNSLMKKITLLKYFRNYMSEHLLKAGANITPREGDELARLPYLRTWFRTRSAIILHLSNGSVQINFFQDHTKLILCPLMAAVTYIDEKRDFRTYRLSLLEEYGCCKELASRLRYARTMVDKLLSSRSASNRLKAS
T3 sequence (Q9H4B4 whole entry): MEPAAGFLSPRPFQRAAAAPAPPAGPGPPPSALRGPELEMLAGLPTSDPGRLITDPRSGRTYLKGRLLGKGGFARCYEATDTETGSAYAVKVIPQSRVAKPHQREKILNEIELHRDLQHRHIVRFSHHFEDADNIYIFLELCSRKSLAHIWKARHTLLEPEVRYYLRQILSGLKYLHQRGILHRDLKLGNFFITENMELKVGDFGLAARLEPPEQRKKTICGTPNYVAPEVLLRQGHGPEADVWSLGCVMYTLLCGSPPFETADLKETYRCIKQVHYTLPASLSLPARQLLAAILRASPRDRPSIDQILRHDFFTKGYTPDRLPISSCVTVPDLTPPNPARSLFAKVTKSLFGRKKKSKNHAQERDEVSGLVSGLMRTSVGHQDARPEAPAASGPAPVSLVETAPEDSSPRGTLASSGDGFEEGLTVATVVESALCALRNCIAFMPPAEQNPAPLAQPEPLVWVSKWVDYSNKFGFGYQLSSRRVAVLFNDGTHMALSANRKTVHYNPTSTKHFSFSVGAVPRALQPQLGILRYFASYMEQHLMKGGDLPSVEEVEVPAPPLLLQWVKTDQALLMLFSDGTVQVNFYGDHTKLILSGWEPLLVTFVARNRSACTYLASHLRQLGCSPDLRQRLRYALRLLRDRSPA
T1 sequence (Q9NYY3 whole entry): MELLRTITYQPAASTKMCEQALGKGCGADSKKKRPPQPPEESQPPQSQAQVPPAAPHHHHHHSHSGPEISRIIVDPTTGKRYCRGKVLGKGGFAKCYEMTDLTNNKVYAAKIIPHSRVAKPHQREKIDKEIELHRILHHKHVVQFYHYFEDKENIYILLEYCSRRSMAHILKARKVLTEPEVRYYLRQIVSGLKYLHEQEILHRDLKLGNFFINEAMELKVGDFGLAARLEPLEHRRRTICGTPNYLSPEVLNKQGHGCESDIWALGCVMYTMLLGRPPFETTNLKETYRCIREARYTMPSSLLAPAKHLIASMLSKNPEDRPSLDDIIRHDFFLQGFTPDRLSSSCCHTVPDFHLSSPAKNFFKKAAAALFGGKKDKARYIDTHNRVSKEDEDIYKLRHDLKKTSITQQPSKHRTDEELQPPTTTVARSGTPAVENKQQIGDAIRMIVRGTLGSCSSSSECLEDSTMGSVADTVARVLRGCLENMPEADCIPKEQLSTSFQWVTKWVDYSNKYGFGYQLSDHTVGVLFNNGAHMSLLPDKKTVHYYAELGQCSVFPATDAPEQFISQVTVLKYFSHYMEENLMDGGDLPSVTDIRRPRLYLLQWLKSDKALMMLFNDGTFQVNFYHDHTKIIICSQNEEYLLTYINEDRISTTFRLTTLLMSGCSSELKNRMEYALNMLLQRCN

CCS(=O)(=O)c1oc(-c2ccc(F)cc2)nc1S(=O)(=O)c1ccccc1 [T521, 5-(ethylsulfonyl)-2-(4-fluorophenyl)-4-(phenylsulfonyl) oxazole]
percentage of prometaphase cells (HeLa cells; 5 μM): 32.7%
percentage of prometaphase cells (HeLa cells; 10 μM): 56.0%
percentage of prometaphase cells (HeLa cells; 15 μM): 76.2%
metaphase cells with chromosome alignment defects (HeLa cells; synchronized HeLa, 5, 10, 15 μM): remarkable increase
IC50 [1]: 3 to 10 µM
covalent addition to protein (Plk2): no addition
increase of intact mass of protein (covalent addition) (Plk1): 907.05 Da
covalent addition to protein (Plk3): no addition
